Values quoted from earlier work in US5215744A, “Methods for the treatment of tumors” (Boehringer Ingelheim GmbH, priority 1987, dated 1993).

Columns and labels:
[1] = tested on: human promyelocytic leukemic cell line; details: cited from earlier work
neoplastic cells = details: cited from earlier work
C1300 neuroblastoma = details: mouse, in vivo; cited from earlier work
[2] = tested on: syngeneic Wilms Tumor (nephroblastoma); details: rat, in vivo; cited from earlier work
PDE = details: cited from earlier work
[3] = tested on: antimitotic effect of interferon and its natural killer cell activating activity; details: with interferon; cited from earlier work
cAMP = details: cited from earlier work
[4] = tested on: interferon antitumor / growth inhibitory effect; details: cited from earlier work
HM-Kim mammary carcinoma = details: rat, in vivo; cited from earlier work

OCCN(CCO)c1nc(N2CCCCC2)c2nc(N(CCO)CCO)ncc2n1 [mopidamole, 2,6-bis-(diethanolamino)-4-piperidino-pyrimido[5,4-d]pyrimidine]
reverse transformation of malignant cells [1]: promotes a reverse transformation of the malignant cells to normal
3H-thymidine incorporation (neoplastic cells): inhibition of 3H-thymidine incorporation into neoplastic cells
mitotic rate (neoplastic cells): direct inhibition of the mitotic rate
spontaneous lung metastases (C1300 neuroblastoma): diminish significantly spontaneous lung metastases
spontaneous lung metastases [2]: diminish significantly spontaneous lung metastases
PDE induced decomposition of cAMP (PDE): inhibition of PDE induced decomposition of cAMP
potentiation of interferon antimitotic effect and NK cell activating activity [3]: potentiates the antimitotic effect of interferon and its natural killer cell activating activity
cAMP levels (cAMP): increase cAMP levels
synergism with interferon ([4]; Ambrus et al. 1983): no synergism was seen
synergism with α and γ interferon ([4]; Wolf et al.): no synergistic inhibitory effect
effect on antitumor effect of leukocyte and fibroblastic interferon ([4]; tissue culture): potentiates the antitumor effect of leukocyte and fibroblastic interferon in tissue culture
effect on growth inhibition by human fibroblastic β-interferon ([4]; with β-interferon): potentiates the growth inhibitory effect of human fibroblastic β-interferon
spontaneous lung metastases (HM-Kim mammary carcinoma): diminish significantly spontaneous lung metastases
